Results published in the NIST ThermoML archive (doi:10.1021/je200373q).
Numbers after ± are expanded uncertainties.

Assay: xn = mol fraction of the nth substance listed
Conditions: 101 kPa, Liquid, Vibrating tube method

Structure (SMILES): CCCCC [pentane] + CCCCCCCC
- mass density (278.15 K, x1 = 0.1002): 709.35 ± 0.31 kg/m3
- mass density (278.15 K, x1 = 0.2008): 704.52 ± 0.33 kg/m3
- mass density (278.15 K, x1 = 0.3023): 698.24 ± 0.35 kg/m3
- mass density (278.15 K, x1 = 0.4019): 691.87 ± 0.36 kg/m3
- mass density (278.15 K, x1 = 0.5001): 685.19 ± 0.38 kg/m3
- mass density (278.15 K, x1 = 0.5982): 678 ± 0.4 kg/m3
- mass density (278.15 K, x1 = 0.7022): 669.63 ± 0.42 kg/m3
- mass density (278.15 K, x1 = 0.8003): 660.99 ± 0.45 kg/m3
- mass density (278.15 K, x1 = 0.8991): 651.39 ± 0.46 kg/m3
- mass density (283.15 K, x1 = 0.1002): 705.34 ± 0.31 kg/m3
- mass density (283.15 K, x1 = 0.2008): 700.46 ± 0.33 kg/m3
- mass density (283.15 K, x1 = 0.3023): 694.11 ± 0.36 kg/m3
- mass density (283.15 K, x1 = 0.4019): 687.66 ± 0.37 kg/m3
- mass density (283.15 K, x1 = 0.5001): 680.91 ± 0.38 kg/m3
- mass density (283.15 K, x1 = 0.5982): 673.65 ± 0.4 kg/m3
- mass density (283.15 K, x1 = 0.7022): 665.18 ± 0.42 kg/m3
- mass density (283.15 K, x1 = 0.8003): 656.45 ± 0.45 kg/m3
- mass density (283.15 K, x1 = 0.8991): 646.73 ± 0.47 kg/m3
- mass density (288.15 K, x1 = 0.1002): 701.31 ± 0.32 kg/m3
- mass density (288.15 K, x1 = 0.2008): 696.38 ± 0.34 kg/m3
- mass density (288.15 K, x1 = 0.3023): 689.94 ± 0.36 kg/m3
- mass density (288.15 K, x1 = 0.4019): 683.43 ± 0.37 kg/m3
- mass density (288.15 K, x1 = 0.5001): 676.6 ± 0.38 kg/m3
- mass density (288.15 K, x1 = 0.5982): 669.26 ± 0.4 kg/m3
- mass density (288.15 K, x1 = 0.7022): 660.68 ± 0.43 kg/m3
- mass density (288.15 K, x1 = 0.8003): 651.85 ± 0.46 kg/m3
- mass density (288.15 K, x1 = 0.8991): 642.04 ± 0.47 kg/m3
- mass density (293.15 K, x1 = 0.1002): 697.26 ± 0.32 kg/m3
- mass density (293.15 K, x1 = 0.2008): 692.29 ± 0.34 kg/m3
- mass density (293.15 K, x1 = 0.3023): 685.74 ± 0.36 kg/m3
- mass density (293.15 K, x1 = 0.4019): 679.16 ± 0.37 kg/m3
- mass density (293.15 K, x1 = 0.5001): 672.26 ± 0.39 kg/m3
- mass density (293.15 K, x1 = 0.5982): 664.83 ± 0.41 kg/m3
- mass density (293.15 K, x1 = 0.7022): 656.15 ± 0.43 kg/m3
- mass density (293.15 K, x1 = 0.8003): 647.21 ± 0.46 kg/m3
- mass density (293.15 K, x1 = 0.8991): 637.29 ± 0.48 kg/m3
- mass density (298.15 K, x1 = 0.1002): 693.19 ± 0.32 kg/m3
- mass density (298.15 K, x1 = 0.2008): 688.16 ± 0.34 kg/m3
- mass density (298.15 K, x1 = 0.3023): 681.52 ± 0.36 kg/m3
- mass density (298.15 K, x1 = 0.4019): 674.87 ± 0.37 kg/m3
- mass density (298.15 K, x1 = 0.5001): 667.88 ± 0.39 kg/m3
- mass density (298.15 K, x1 = 0.5982): 660.37 ± 0.41 kg/m3
- mass density (298.15 K, x1 = 0.7022): 651.58 ± 0.44 kg/m3
- mass density (298.15 K, x1 = 0.8003): 642.52 ± 0.46 kg/m3
- mass density (298.15 K, x1 = 0.8991): 632.49 ± 0.48 kg/m3
- mass density (303.15 K, x1 = 0.1002): 689.09 ± 0.32 kg/m3
- mass density (303.15 K, x1 = 0.2008): 684.01 ± 0.34 kg/m3
- mass density (303.15 K, x1 = 0.3023): 677.28 ± 0.37 kg/m3
- mass density (303.15 K, x1 = 0.4019): 670.54 ± 0.38 kg/m3
- mass density (303.15 K, x1 = 0.5001): 663.47 ± 0.39 kg/m3
- mass density (303.15 K, x1 = 0.5982): 655.87 ± 0.41 kg/m3
- mass density (303.15 K, x1 = 0.7022): 646.96 ± 0.44 kg/m3
- mass density (303.15 K, x1 = 0.8003): 637.79 ± 0.47 kg/m3
- mass density (303.15 K, x1 = 0.8991): 627.64 ± 0.49 kg/m3
- mass density (308.15 K, x1 = 0.1002): 684.97 ± 0.32 kg/m3
- mass density (308.15 K, x1 = 0.2008): 679.84 ± 0.34 kg/m3
- mass density (308.15 K, x1 = 0.3023): 673 ± 0.37 kg/m3
- mass density (308.15 K, x1 = 0.4019): 666.19 ± 0.38 kg/m3
- mass density (308.15 K, x1 = 0.5001): 659.03 ± 0.39 kg/m3
- mass density (308.15 K, x1 = 0.5982): 651.33 ± 0.42 kg/m3
- mass density (308.15 K, x1 = 0.7022): 642.31 ± 0.44 kg/m3
- mass density (308.15 K, x1 = 0.8003): 633 ± 0.47 kg/m3
- mass density (308.15 K, x1 = 0.8991): 622.72 ± 0.49 kg/m3
- mass density (313.15 K, x1 = 0.1002): 680.83 ± 0.32 kg/m3
- mass density (313.15 K, x1 = 0.2008): 675.63 ± 0.35 kg/m3
- mass density (313.15 K, x1 = 0.3023): 668.7 ± 0.37 kg/m3
- mass density (313.15 K, x1 = 0.4019): 661.8 ± 0.38 kg/m3
- mass density (313.15 K, x1 = 0.5001): 654.59 ± 0.4 kg/m3
- mass density (313.15 K, x1 = 0.5982): 646.75 ± 0.42 kg/m3
- mass density (313.15 K, x1 = 0.7022): 637.61 ± 0.45 kg/m3
- mass density (313.15 K, x1 = 0.8003): 628.16 ± 0.48 kg/m3
- mass density (313.15 K, x1 = 0.8991): 617.96 ± 0.49 kg/m3
- mass density (318.16 K, x1 = 0.1002): 676.64 ± 0.33 kg/m3
- mass density (318.16 K, x1 = 0.2008): 671.38 ± 0.35 kg/m3
- mass density (318.16 K, x1 = 0.3023): 664.36 ± 0.38 kg/m3
- mass density (318.16 K, x1 = 0.4019): 657.38 ± 0.38 kg/m3
- mass density (318.16 K, x1 = 0.5001): 650.06 ± 0.4 kg/m3
- mass density (318.16 K, x1 = 0.5982): 642.12 ± 0.43 kg/m3
- mass density (318.16 K, x1 = 0.7022): 632.85 ± 0.45 kg/m3
- mass density (318.16 K, x1 = 0.8003): 623.27 ± 0.47 kg/m3
- mass density (323.16 K, x1 = 0.1002): 672.43 ± 0.33 kg/m3
- mass density (323.16 K, x1 = 0.2008): 667.11 ± 0.35 kg/m3
- mass density (323.16 K, x1 = 0.3023): 659.99 ± 0.38 kg/m3
- mass density (323.16 K, x1 = 0.4019): 652.92 ± 0.39 kg/m3
- mass density (323.16 K, x1 = 0.5001): 645.5 ± 0.41 kg/m3
- mass density (323.16 K, x1 = 0.5982): 637.45 ± 0.43 kg/m3
- mass density (323.16 K, x1 = 0.7022): 628.04 ± 0.44 kg/m3
- mass density (328.16 K, x1 = 0.1002): 668.2 ± 0.33 kg/m3
- mass density (328.16 K, x1 = 0.2008): 662.81 ± 0.36 kg/m3
- mass density (328.16 K, x1 = 0.3023): 655.59 ± 0.38 kg/m3
- mass density (328.16 K, x1 = 0.4019): 648.42 ± 0.39 kg/m3
- mass density (328.16 K, x1 = 0.5001): 640.9 ± 0.41 kg/m3
- mass density (328.16 K, x1 = 0.5982): 632.73 ± 0.42 kg/m3
- mass density (333.15 K, x1 = 0.1002): 663.94 ± 0.33 kg/m3
- mass density (333.15 K, x1 = 0.2008): 658.48 ± 0.36 kg/m3
- mass density (333.15 K, x1 = 0.3023): 651.16 ± 0.4 kg/m3
- mass density (338.15 K, x1 = 0.1002): 659.63 ± 0.34 kg/m3
- mass density (338.15 K, x1 = 0.2008): 654.1 ± 0.36 kg/m3
- mass density (338.15 K, x1 = 0.3023): 646.68 ± 0.39 kg/m3
- mass density (343.15 K, x1 = 0.1002): 655.28 ± 0.34 kg/m3
- mass density (343.15 K, x1 = 0.2008): 649.68 ± 0.36 kg/m3
- mass density (343.15 K, x1 = 0.3023): 642.13 ± 0.39 kg/m3
- mass density (348.15 K, x1 = 0.1002): 650.9 ± 0.34 kg/m3
- mass density (348.15 K, x1 = 0.2008): 645.21 ± 0.37 kg/m3
- mass density (348.15 K, x1 = 0.3023): 637.57 ± 0.4 kg/m3
- mass density (353.15 K, x1 = 0.1002): 646.47 ± 0.34 kg/m3
- mass density (353.15 K, x1 = 0.2008): 640.7 ± 0.37 kg/m3
- mass density (353.15 K, x1 = 0.3023): 632.94 ± 0.4 kg/m3
- mass density (358.15 K, x1 = 0.1002): 642 ± 0.35 kg/m3
- mass density (358.15 K, x1 = 0.2008): 636.15 ± 0.37 kg/m3
- mass density (358.15 K, x1 = 0.3023): 628.27 ± 0.41 kg/m3
- mass density (363.15 K, x1 = 0.1002): 637.48 ± 0.35 kg/m3
- mass density (363.15 K, x1 = 0.2008): 631.54 ± 0.38 kg/m3
- mass density (363.15 K, x1 = 0.3023): 623.54 ± 0.41 kg/m3
